Measurements reported in patent US7871995B2, “Drug delivery system comprising a tetrahydroxylated estrogen for use in hormonal contraception” (Pantarhei Bioscience B.V., priority 2001, dated 2011).
Read-outs that look alike come from different tables or passages of the source.

Columns and labels:
[1] = biological target: T1, human sex Hormone Binding Globulin (SHBG) (Homo sapiens, UniProt P04278); test: Competitive steroid-binding assay for human SHBG; details: for relative binding affinity for human SHBG: rising in the order ethinylestradiol, 17β-estradiol, testosterone, 5α-dihydrotestosterone
T1 construct: Human SHBG was purified from transgenic mouse serum; made in house; host or cells: transgenic mouse (serum)
T1 sequence (P04278 30-402): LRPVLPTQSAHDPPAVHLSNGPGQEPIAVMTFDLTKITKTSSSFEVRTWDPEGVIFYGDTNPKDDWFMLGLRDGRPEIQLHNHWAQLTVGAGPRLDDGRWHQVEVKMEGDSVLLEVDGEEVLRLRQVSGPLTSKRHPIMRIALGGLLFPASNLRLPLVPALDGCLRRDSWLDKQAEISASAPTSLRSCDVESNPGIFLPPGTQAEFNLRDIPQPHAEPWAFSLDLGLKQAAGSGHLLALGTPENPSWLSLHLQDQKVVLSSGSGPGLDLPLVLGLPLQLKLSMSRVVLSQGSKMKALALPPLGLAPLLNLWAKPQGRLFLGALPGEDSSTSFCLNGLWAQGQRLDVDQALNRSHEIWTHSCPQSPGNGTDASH
Experimental: Human SHBG was treated for 30 min at room temperature with a dextran-coated charcoal (DCC) suspension in phosphate buffered saline (PBS) to remove any steroid ligand. After centrifugation (2,000×g for 10 min) to sediment the DCC, the supernatant containing the human SHBG was diluted in PBS to a concentration of 1 nM based on its steroid binding capacity.
The average amounts of [^3H]labeled ligands bound to SHBG at each concentration of competitor (B) were expressed as a percentage of the average amounts of [^3H]labeled ligands bound to SHBG in the absence of competitor (B0), and were. plotted against the concentration of competitor in each assay tube.

[2] = system: four-day cyclic rats (ovulation); test: Antiovulatory bioassay in four-day cyclic rats, subcutaneous dosing; format: in vivo, rat; details: for inhibition of ovulation: EE 1.0-100 μg/kg, E2 and E4 0.1-3.0 mg/kg; for complete ovulation inhibition: twice daily sc, higher dosages
Experimental: Vaginal smears from female rats are obtained daily for two weeks to select four-day cycling rats. Only four-day cyclic rats are to be used for the antiovulatory bioassay. […] One day after the final dose (day 5), rats are euthanized by CO2 asphyxiation at 1 pm, and the number of ova per oviduct is determined. Group means are subsequently calculated for the number of ova per ovulated rat (both oviducts). The ratio of rats ovulating for each treatment group is compared to the ratio for the vehicle-treated rats.

[3] = system: ovariectomized adult rats (vaginal epithelial cornification); test: Vaginal cornification bioassay in ovariectomized rats, subcutaneous dosing; format: in vivo, rat
Experimental: Adult intact female CD rats were ovariectomized to induce estrogen deficiency. […] Castrate vaginal smears are indicative that complete ovariectomy was achieved. Treatment commenced following completion of the 7 days of smearing (day 0=first day of dosing). Animals were dosed, once daily for 7 consecutive days. Daily vaginal lavages continued to be obtained for 7 days after dosing was initiated in order to detect vaginal cornification, as an indication of an estrogenic response. A drop of vaginal washings was placed on a glass slide and examined by light microscopy to detect the presence or absence of cornified epithelial cells. Vaginal lavages were obtained prior to dosing on days 0-6 and prior to necropsy on day 7. The vaginal cornification bioassay was performed in order to determine the estrogenic profile of E4 when given subcutaneously (sc) to ovariectomized adult rats. E2 was used as a positive control. […] The occurrence of vaginal cornification, indicative of an estrogenic response, is an “all or none” response. Data are, therefore, expressed as the number of rats showing a vaginal estrogenic response over the number of rats (ratio) treated.

[4] = system: human breast cancer cells (MCF-7); details: MCF-7, long term tissue culture; cited from earlier work
[5] = tritium labeled, intravenous, two adult women; cited from earlier work
[6] = Elimination half-life after single subcutaneous dose, plasma by HPLC-MS/MS; format: in vivo, rat; details: single sc dose, female Sprague Dawley rats, sampling 0.5-24 hours
Experimental: To determine the elimination half-life of estetrol (E4) after subcutaneous administration (sc), single dose studies were performed in female Sprague Dawley rats followed by frequent blood sampling over a 24 hours interval.
Female Sprague Dawley rats were equipped with a permanent silatic heart catheter, as described by Kuipers et al. (1985,Gastroenterology, 88, 403-411). Rats were allowed to recover from surgery for 5 days and were than administered 0.05, 0.5,or 5 mg/kg E4 in 0.5 ml arachidis oil. E4 was injected in the neck area using a 1 ml syringe and 20 g needle. Blood samples were subsequently collected via the heart catheter in heparinized tubes at 0.5, 1, 2, 4, 8 and 24 hours. Erythrocytes were removed by centrifugation at 5000×g for 10 minutes at 4° C. and blood plasma was stored at −20° C. […] With each sample batch, a calibration curve with 6 calibrators was recorded. The calibration curve was calculated using linear regression (correlation coefficient>0.98), which permitted quantitation of plasma concentrations. […]
Plasma E4 concentration data were analysed with “WinNonLin, edition 3.1” and involved pharmacokinetic parameters for Cmax, AUC0-24 and half-life.

uterus = details: continuous administration from a subcutaneous depot; Martucci et al., 1977; cited from earlier work
immature rat uterus = details: subcutaneous, Holinka et al., cited from earlier work

## C[C@]12CC[C@H]3[C@@H](CCC4=CC(=O)CC[C@@]43C)[C@@H]1CC[C@@H]2O [testosterone, reference compound]
[1]
  relative binding affinity for human SHBG: show an increased relative binding affinity for human SHBG

## C[C@]12CC[C@@H]3c4ccc(O)cc4CC[C@H]3[C@@H]1CC[C@@H]2O [17β-estradiol]
[2]; twice daily sc for 4 days
  inhibition of ovulation: dose-dependently inhibits ovulation
[2]
  complete ovulation inhibition: complete ovulation inhibition is achieved
[3]; 0.05 mg/kg/day sc, Day 0
  Number of Rats Exhibiting Estrogenic Response/Number of Rats Treated: 0/8
[3]; 0.05 mg/kg/day sc, Day 1
  Number of Rats Exhibiting Estrogenic Response/Number of Rats Treated: 0/8
[3]; 0.05 mg/kg/day sc, Day 2
  Number of Rats Exhibiting Estrogenic Response/Number of Rats Treated: 8/8
[3]; 0.05 mg/kg/day sc, Day 3
  Number of Rats Exhibiting Estrogenic Response/Number of Rats Treated: 8/8
[3]; 0.05 mg/kg/day sc, Day 4
  Number of Rats Exhibiting Estrogenic Response/Number of Rats Treated: 8/8
[3]; 0.05 mg/kg/day sc, Day 5
  Number of Rats Exhibiting Estrogenic Response/Number of Rats Treated: 8/8
[3]; 0.05 mg/kg/day sc, Day 6
  Number of Rats Exhibiting Estrogenic Response/Number of Rats Treated: 8/8
[3]; 0.05 mg/kg/day sc, Day 7
  Number of Rats Exhibiting Estrogenic Response/Number of Rats Treated: 8/8

## C[C@]12CCC(=O)C[C@@H]1CC[C@@H]1[C@@H]2CC[C@]2(C)[C@@H](O)CC[C@@H]12 [5α-dihydrotestosterone, reference compound]
[1]
  relative binding affinity for human SHBG: show an increased relative binding affinity for human SHBG

## C[C@]12CC[C@@H]3c4ccc(O)cc4CC[C@H]3[C@@H]1[C@@H](O)[C@@H](O)[C@@H]2O [estetrol, 1,3,5 (10)-estratrien-3, 15α,16α,17β-tetrol]
[4]
  agonistic potency in in vitro cell proliferation, of the magnitude observed for 17β-estradiol: 2%
[2]; twice daily sc for 4 days
  antiovulatory activity compared with E2: equal potency or even more potency in inhibiting ovulation than E2
  inhibition of ovulation: dose-dependently inhibits ovulation
[2]
  complete ovulation inhibition: complete ovulation inhibition is achieved
[1]; [3H]DHT as labeled ligand
  binding to human SHBG (competitive displacement): does not bind at all
[1]; [3H]estradiol as labeled ligand
  binding to human SHBG (competitive displacement): does not bind at all
[1]; compared with ethinylestradiol and 17β-estradiol
  binding to SHBG compared with the other estrogens tested: negligible
[5]
  metabolism: virtually no metabolism except for conjugation took place
[6]
  plasma levels of unconjugated E4 over a 24 hour interval: detection of bioactive levels of unconjugated E4 at all time points
[3]; 1.0 mg/kg/day sc, Day 7, listed as E4
  Number of Rats Exhibiting Estrogenic Response/Number of Rats Treated: all rats showed a vaginal estrogenic response
[3]; 3.0 mg/kg/day sc, Day 7, listed as E4
  Number of Rats Exhibiting Estrogenic Response/Number of Rats Treated: all rats showed a vaginal estrogenic response
[3]; sc 0.1, 0.3, 1.0 and 3.0 mg/kg/day
  onset of vaginal epithelial cornification: dose-dependent
[3]; sc 0.1, 0.3, 1.0 and 3.0 mg/kg/day, same day as observed for E2
  day of treatment on which vaginal epithelial cornification started: 2 days
uterus
  uterotrophic activity: very weak uterotrophic activity
Immature rat uterus; 1979
  uterotrophic activity: very weak uterotrophic activity
Immature rat uterus; 1980
  uterotrophic activity: very weak uterotrophic activity
